Values quoted from earlier work, collected in patent publication US20130210624A1, “COMPOSITION FOR IMPROVING PLANT HEALTH AND METHOD OF APPLYING SAME” (priority 2012, published 2013).

Test system: oranges
Settings: single prebloom foliar application; Albrigo 1999

## phosphite
  flower number: increased flower number
  yield: increased yield
